# From US20020111274A1, “1-alkyl-3-[1-(substituted phenyl) benzotriazol-6-yl] uracils” (BASF Aktiengesellschaft, priority 2000, published 2002)
# Tests used:
# Parameters in all cases: scale not given here
# [1] = test system: CASOB Sicklepod; experiment: Postemergence herbicidal evaluation, CASOB; format: in vivo, Cassia obtusifolia, L.; details: postemergence spray, rated about two-three weeks after treatment
# Method in brief: (§1)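 Postemergence spray, 40 psi nozzle, on ~2-week seedlings. Carrier: acetone/water 80/20, 1.0% methylated seed oil; dose ~0.006–0.400 kg/ha. Scored visually at 2–3 weeks.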
# [2] = test system: ECHOG Barnyardgrass; experiment: Preemergence herbicidal evaluation, ECHOG; format: in vivo, Echinochloa crus-galli, (L.) Beau; details: preemergence
# Method in brief: (§2)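 Seeds mixed with potting soil were planted on about one inch of soil in cups, then sprayed with the test compound in aqueous acetone at roughly 0.013 to 0.800 kg per hectare. Plants were kept under standard greenhouse care and injury was rated four to five weeks after treatment.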
# [3] = test system: GALAP Galium; experiment: Preemergence herbicidal evaluation, GALAP; format: in vivo, Galium aparine; details: preemergence
# Method in brief: as §2
# [4] = test system: CASOB Sicklepod; experiment: Preemergence herbicidal evaluation, CASOB; format: in vivo, Cassia obtusifolia, L.; details: preemergence
# Method in brief: as §2
# [5] = test system: AMBEL Ragweed, Common; experiment: Preemergence herbicidal evaluation, AMBEL; format: in vivo, Ambrosia artemisifolia, L.; details: preemergence
# Method in brief: as §2
# [6] = test system: SETVI Foxtail, Green; experiment: Postemergence herbicidal evaluation, SETVI; format: in vivo, Setaria viridis, (L.) Beau; details: postemergence spray, rated about two-three weeks after treatment
# Method in brief: as §1
# [7] = test system: ABUTH Velvetleaf; experiment: Postemergence herbicidal evaluation, ABUTH; format: in vivo, Abutilon theophrasti, Medic.; details: postemergence spray, rated about two-three weeks after treatment
# Method in brief: as §1
# [8] = test system: CHEAL Lambsquarters, Common; experiment: Preemergence herbicidal evaluation, CHEAL; format: in vivo, Chenopodium album, L.; details: preemergence
# Method in brief: as §2
# [9] = test system: GLXMAW Soybean, Williams; experiment: Preemergence herbicidal evaluation, GLXMAW; format: in vivo, Glycine max, (L.) Merr. cv Williams; details: preemergence
# Method in brief: as §2
# [10] = test system: CHEAL Lambsquarters, Common; experiment: Postemergence herbicidal evaluation, CHEAL; format: in vivo, Chenopodium album, L.; details: postemergence spray, rated about two-three weeks after treatment
# Method in brief: as §1
# [11] = test system: ZEAMX Corn, Field; experiment: Preemergence herbicidal evaluation, ZEAMX; format: in vivo, Zea mays, L. (Sammel-Bezeichnung); details: preemergence
# Method in brief: as §2
# [12] = test system: ZEAMX Corn, Field; experiment: Postemergence herbicidal evaluation, ZEAMX; format: in vivo, Zea mays, L. (Sammel-Bezeichnung); details: postemergence spray, rated about two-three weeks after treatment
# Method in brief: as §1
# [13] = test system: IPOHE Morningglory, Ivyleaf; experiment: Postemergence herbicidal evaluation, IPOHE; format: in vivo, Ipomoea hederacea, (L.) Jacq.; details: postemergence spray, rated about two-three weeks after treatment
# Method in brief: as §1
# [14] = test system: AMBEL Ragweed, Common; experiment: Postemergence herbicidal evaluation, AMBEL; format: in vivo, Ambrosia artemisifolia, L.; details: postemergence spray, rated about two-three weeks after treatment
# Method in brief: as §1
# [15] = test system: TRZAWR Wheat, Winter, cv Riband; experiment: Preemergence herbicidal evaluation, TRZAWR; format: in vivo, Triticum aestivum; details: preemergence
# Method in brief: as §2
# [16] = test system: ORYSAT Rice, Tebonnet; experiment: Preemergence herbicidal evaluation, ORYSAT; format: in vivo, Oryza sativa, (L.); details: preemergence
# Method in brief: as §2
# [17] = test system: ECHOG Barnyardgrass; experiment: Postemergence herbicidal evaluation, ECHOG; format: in vivo, Echinochloa crus-galli, (L.) Beau; details: postemergence spray, rated about two-three weeks after treatment
# Method in brief: as §1
# [18] = test system: GALAP Galium; experiment: Postemergence herbicidal evaluation, GALAP; format: in vivo, Galium aparine; details: postemergence spray, rated about two-three weeks after treatment
# Method in brief: as §1
# [19] = test system: IPOHE Morningglory, Ivyleaf; experiment: Preemergence herbicidal evaluation, IPOHE; format: in vivo, Ipomoea hederacea, (L.) Jacq.; details: preemergence
# Method in brief: as §2
# [20] = test system: TRZAWR Wheat, Winter, cv Riband; experiment: Postemergence herbicidal evaluation, TRZAWR; format: in vivo, Triticum aestivum; details: postemergence spray, rated about two-three weeks after treatment
# Method in brief: as §1
# [21] = test system: GLXMAW Soybean, Williams; experiment: Postemergence herbicidal evaluation, GLXMAW; format: in vivo, Glycine max, (L.) Merr. cv Williams; details: postemergence spray, rated about two-three weeks after treatment
# Method in brief: as §1
# [22] = test system: SETVI Foxtail, Green; experiment: Preemergence herbicidal evaluation, SETVI; format: in vivo, Setaria viridis, (L.) Beau; details: preemergence
# Method in brief: as §2
# [23] = test system: ABUTH Velvetleaf; experiment: Preemergence herbicidal evaluation, ABUTH; format: in vivo, Abutilon theophrasti, Medic.; details: preemergence
# Method in brief: as §2
# [24] = test system: ORYSAT Rice, Tebonnet; experiment: Postemergence herbicidal evaluation, ORYSAT; format: in vivo, Oryza sativa, (L.); details: postemergence spray, rated about two-three weeks after treatment
# Method in brief: as §1
compound,measurement,setting,value
Cc1ccc(O)cc1-n1nnc2cc(F)c(-n3c(=O)cc(C(F)(F)F)n(C)c3=O)cc21 [Example 32],Postemergence herbicidal rating CASOB,[1]; 0.008 kg/ha,0.0
same,Postemergence herbicidal rating CASOB,[1]; 0.016 kg/ha,0.0
same,Postemergence herbicidal rating CASOB,[1]; 0.032 kg/ha,0.0
same,Postemergence herbicidal rating CASOB,[1]; 0.062 kg/ha,0.0
same,ECHCG herbicidal rating,[2]; rate 0.016 kg/ha,0.0
same,ECHCG herbicidal rating,[2]; rate 0.032 kg/ha,0.0
same,ECHCG herbicidal rating,[2]; rate 0.062 kg/ha,0.0
same,ECHCG herbicidal rating,[2]; rate 0.125 kg/ha,0.0
same,GALAP herbicidal rating,[3]; rate 0.016 kg/ha,0.0
same,GALAP herbicidal rating,[3]; rate 0.032 kg/ha,0.0
same,GALAP herbicidal rating,[3]; rate 0.062 kg/ha,0.0
same,CASOB herbicidal rating,[4]; rate 0.016 kg/ha,0.0
same,CASOB herbicidal rating,[4]; rate 0.032 kg/ha,0.0
same,CASOB herbicidal rating,[4]; rate 0.062 kg/ha,0.0
same,CASOB herbicidal rating,[4]; rate 0.125 kg/ha,0.0
same,AMBEL herbicidal rating,[5]; rate 0.016 kg/ha,0.0
same,AMBEL herbicidal rating,[5]; rate 0.032 kg/ha,0.0
same,AMBEL herbicidal rating,[5]; rate 0.062 kg/ha,0.0
same,AMBEL herbicidal rating,[5]; rate 0.125 kg/ha,0.0
same,Postemergence herbicidal rating SETVI,[6]; 0.008 kg/ha,0.0
same,Postemergence herbicidal rating SETVI,[6]; 0.016 kg/ha,0.0
same,Postemergence herbicidal rating SETVI,[6]; 0.032 kg/ha,0.0
same,Postemergence herbicidal rating SETVI,[6]; 0.062 kg/ha,0.0
same,Postemergence herbicidal rating ABUTH,[7]; 0.008 kg/ha,0.0
same,Postemergence herbicidal rating ABUTH,[7]; 0.016 kg/ha,0.0
same,Postemergence herbicidal rating ABUTH,[7]; 0.032 kg/ha,0.0
same,Postemergence herbicidal rating ABUTH,[7]; 0.062 kg/ha,4.0
same,CHEAL herbicidal rating,[8]; rate 0.016 kg/ha,0.0
same,CHEAL herbicidal rating,[8]; rate 0.032 kg/ha,0.0
same,CHEAL herbicidal rating,[8]; rate 0.062 kg/ha,0.0
same,CHEAL herbicidal rating,[8]; rate 0.125 kg/ha,6.0
same,GLXMAW herbicidal rating,[9]; rate 0.016 kg/ha,0.0
same,GLXMAW herbicidal rating,[9]; rate 0.032 kg/ha,0.0
same,GLXMAW herbicidal rating,[9]; rate 0.062 kg/ha,0.0
same,GLXMAW herbicidal rating,[9]; rate 0.125 kg/ha,1.0
same,Postemergence herbicidal rating CHEAL,[10]; 0.008 kg/ha,0.0
same,Postemergence herbicidal rating CHEAL,[10]; 0.016 kg/ha,0.0
same,Postemergence herbicidal rating CHEAL,[10]; 0.032 kg/ha,0.0
same,Postemergence herbicidal rating CHEAL,[10]; 0.062 kg/ha,0.0
same,ZEAMX herbicidal rating,[11]; rate 0.016 kg/ha,0.0
same,ZEAMX herbicidal rating,[11]; rate 0.032 kg/ha,0.0
same,ZEAMX herbicidal rating,[11]; rate 0.062 kg/ha,0.0
same,ZEAMX herbicidal rating,[11]; rate 0.125 kg/ha,1.0
same,Postemergence herbicidal rating ZEAMX,[12]; 0.008 kg/ha,2.0
same,Postemergence herbicidal rating ZEAMX,[12]; 0.016 kg/ha,2.5
same,Postemergence herbicidal rating ZEAMX,[12]; 0.032 kg/ha,2.5
same,Postemergence herbicidal rating ZEAMX,[12]; 0.062 kg/ha,2.5
same,Postemergence herbicidal rating IPOHE,[13]; 0.008 kg/ha,0.0
same,Postemergence herbicidal rating IPOHE,[13]; 0.016 kg/ha,0.0
same,Postemergence herbicidal rating IPOHE,[13]; 0.032 kg/ha,0.0
same,Postemergence herbicidal rating IPOHE,[13]; 0.062 kg/ha,0.0
same,Postemergence herbicidal rating AMBEL,[14]; 0.008 kg/ha,0.0
same,Postemergence herbicidal rating AMBEL,[14]; 0.016 kg/ha,0.0
same,Postemergence herbicidal rating AMBEL,[14]; 0.032 kg/ha,0.0
same,Postemergence herbicidal rating AMBEL,[14]; 0.062 kg/ha,0.0
same,TRZAWR herbicidal rating,[15]; rate 0.016 kg/ha,0.0
same,TRZAWR herbicidal rating,[15]; rate 0.032 kg/ha,0.0
same,TRZAWR herbicidal rating,[15]; rate 0.062 kg/ha,0.0
same,TRZAWR herbicidal rating,[15]; rate 0.125 kg/ha,0.0
same,ORYSAT herbicidal rating,[16]; rate 0.016 kg/ha,0.0
same,ORYSAT herbicidal rating,[16]; rate 0.032 kg/ha,0.0
same,ORYSAT herbicidal rating,[16]; rate 0.062 kg/ha,0.0
same,ORYSAT herbicidal rating,[16]; rate 0.125 kg/ha,0.0
same,Postemergence herbicidal rating ECHCG,[17]; 0.008 kg/ha,0.0
same,Postemergence herbicidal rating ECHCG,[17]; 0.016 kg/ha,0.0
same,Postemergence herbicidal rating ECHCG,[17]; 0.032 kg/ha,0.0
same,Postemergence herbicidal rating ECHCG,[17]; 0.062 kg/ha,0.0
same,Postemergence herbicidal rating GALAP,[18]; 0.008 kg/ha,0.0
same,Postemergence herbicidal rating GALAP,[18]; 0.016 kg/ha,0.0
same,Postemergence herbicidal rating GALAP,[18]; 0.032 kg/ha,0.0
same,Postemergence herbicidal rating GALAP,[18]; 0.062 kg/ha,0.0
same,IPOHE herbicidal rating,[19]; rate 0.016 kg/ha,0.0
same,IPOHE herbicidal rating,[19]; rate 0.032 kg/ha,0.0
same,IPOHE herbicidal rating,[19]; rate 0.062 kg/ha,0.0
same,IPOHE herbicidal rating,[19]; rate 0.125 kg/ha,0.0
same,Postemergence herbicidal rating TRZAWR,[20]; 0.008 kg/ha,1.0
same,Postemergence herbicidal rating TRZAWR,[20]; 0.016 kg/ha,2.5
same,Postemergence herbicidal rating TRZAWR,[20]; 0.032 kg/ha,2.5
same,Postemergence herbicidal rating TRZAWR,[20]; 0.062 kg/ha,3.0
same,Postemergence herbicidal rating GLXMAW,[21]; 0.008 kg/ha,2.0
same,Postemergence herbicidal rating GLXMAW,[21]; 0.016 kg/ha,2.5
same,Postemergence herbicidal rating GLXMAW,[21]; 0.032 kg/ha,3.0
same,Postemergence herbicidal rating GLXMAW,[21]; 0.062 kg/ha,3.0
same,SETVI herbicidal rating,[22]; rate 0.016 kg/ha,0.0
same,SETVI herbicidal rating,[22]; rate 0.032 kg/ha,0.0
same,SETVI herbicidal rating,[22]; rate 0.062 kg/ha,0.0
same,SETVI herbicidal rating,[22]; rate 0.125 kg/ha,0.0
same,ABUTH herbicidal rating,[23]; rate 0.016 kg/ha,0.0
same,ABUTH herbicidal rating,[23]; rate 0.032 kg/ha,0.0
same,ABUTH herbicidal rating,[23]; rate 0.062 kg/ha,0.0
same,ABUTH herbicidal rating,[23]; rate 0.125 kg/ha,4.0
same,Postemergence herbicidal rating ORYSAT,[24]; 0.008 kg/ha,1.0
same,Postemergence herbicidal rating ORYSAT,[24]; 0.016 kg/ha,1.5
same,Postemergence herbicidal rating ORYSAT,[24]; 0.032 kg/ha,1.5
same,Postemergence herbicidal rating ORYSAT,[24]; 0.062 kg/ha,2.0
